# Molecular target: T1, MEK1 (Homo sapiens, UniProt Q02750)
# T1 construct: purchased Millipore 14-420
# Assay: MEK1 Activation Kinase Assay (Cot1, HTRF)
# Assay type: biochemical
# Details: activation of GST-MEK1 by Cot1
# Experimental: The kinase Cot1 activates MEK1 by phosphorylating its activation loop. The inhibitory activity of compounds of the present invention on this activation of MEK1 was quantified employing the HTRF assay described in the following paragraphs.
# As substrate for the kinase reaction the unactive C-terminally His6-tagged GST-MEK1 fusion protein (Millipore cat. no 14-420) was used.
# 630 (Sigma), 5 mM β-phospho-glycerol] were added and the mixture was incubated for 10 min at 22° C. to allow pre-binding of the test compounds to the GST-MEK1 before the start of the kinase reaction. Then the kinase reaction was started by the addition of 2 μl of a solution of Cot1 in assay buffer and the resulting mixture was incubated for a reaction time of 20 min at 22° C. The concentration of Cot1 in the assay was adjusted depending of the activity of the enzyme lot and was chosen appropriate to have the assay in the linear range, typical enzyme concentrations were in the range of about 2 ng/μl (final conc. in the 5 μl assay volume). […] The resulting mixture was incubated 2 h at 22° C. to allow the binding of the phosphorylated GST-MEK1 to the anti-GST-XL665 and the Eu-cryptate labelled anti-phospho-MEK 1/2 antibody. Subsequently the amount of Ser217/Ser221-phosphorylated substrate was evaluated by measurement of the resonance energy transfer from the Eu-Cryptate-labelled anti-phospho-MEK antibody to the anti-GST-XL665.
# T1 sequence (Q02750 whole entry): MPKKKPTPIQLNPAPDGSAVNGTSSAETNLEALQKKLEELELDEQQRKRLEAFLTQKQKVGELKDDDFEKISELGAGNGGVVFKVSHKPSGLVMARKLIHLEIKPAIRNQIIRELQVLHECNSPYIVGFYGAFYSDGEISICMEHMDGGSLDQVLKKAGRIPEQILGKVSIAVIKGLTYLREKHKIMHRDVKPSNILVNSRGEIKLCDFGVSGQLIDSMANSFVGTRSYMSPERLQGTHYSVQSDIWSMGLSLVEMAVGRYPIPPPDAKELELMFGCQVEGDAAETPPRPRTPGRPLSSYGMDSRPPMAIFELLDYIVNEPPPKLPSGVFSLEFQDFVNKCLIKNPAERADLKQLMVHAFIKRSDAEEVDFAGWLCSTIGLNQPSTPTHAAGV
row,SMILES,IC50
1,"CN(C)S(=O)(=O)Nc1cccc(Oc2cc(F)cc(Nc3ccc(I)cc3F)c2C#N)c1 [Example 2.1, N′-[3-[2-cyano-5-fluoro-3-[(2-fluoro-4-iodophenyl)amino]phenoxy]phenyl]-N,N-dimethyl-sulfamide]",< 1000 nM
2,"CN(C)S(=O)(=O)Nc1cccc(Oc2cc(F)cc(Nc3ccc(I)cc3F)c2C(N)=O)c1 [Example 3.2, 2-[3-[[(dimethylamino)sulfonyl]amino]phenoxy]-4-fluoro-6-[(2-fluoro-4-iodophenyl)amino]-benzamide]",< 250 nM
3,"NC(=O)c1c(Nc2ccc(I)cc2F)cc(F)cc1OCCCN1CCCC1=O [Example 3.3, 4-Fluoro-2-(2-fluoro-4-iodo-phenylamino)-6-[3-(2-oxo-pyrrolidin-1-yl)-propoxy]-benzamide]",< 250 nM
4,"NC(=O)c1c(Nc2ccc(I)cc2F)cc(F)cc1OCCc1cccnc1 [Example 3.5, 4-Fluoro-2-(2-fluoro-4-iodo-phenylamino)-6-(2-pyridin-3-yl-ethoxy)-benzamide]",< 250 nM
5,"NC(=O)c1c(Nc2ccc(I)cc2F)cc(F)cc1OC[C@H](O)[C@@H](O)CO [Example 3.8, 4-Fluoro-2-(2-fluoro-4-iodo-phenylamino)-6-((2S,3S)-2,3,4-trihydroxy-butoxy)-benzamide]",< 250 nM
6,"NC(=O)c1c(Nc2ccc(I)cc2F)cc(F)cc1Oc1cccc(N)c1 [Example 4.1, 2-(3-Amino-phenoxy)-4-fluoro-6-(2-fluoro-4-iodo-phenylamino)-benz-amide]",< 250 nM
7,"NC(=O)c1c(Nc2ccc(I)cc2F)cc(F)cc1OCCC1CCCCN1 (stereo not shown) [Example 4.5, 4-Fluoro-2-(2-fluoro-4-iodo-phenylamino)-6-(2-piperidin-2-yl-ethoxy)-benzamide]",< 250 nM
8,"NC(=O)c1c(Nc2ccc(I)cc2F)cc(F)cc1OCC1CNC1 [Example 4.6, 2-(Azeitidn-3-ylmethoxy)-4-fluoro-6-(2-fluoro-4-iodo-phenylamino)-benzamide]",< 250 nM
9,"NC(=O)c1c(Nc2ccc(I)cc2F)cc(F)cc1Oc1ccc2c(c1)S(=O)(=O)CO2 [Example 5.1, 2-(3,3-Dioxo-2,3-dihydro-3λ^6-benzo[1,3]oxathiol-5-yloxy)-4-fluoro-6-(2-fluoro-4-iodo-phenylamino)-benzamide]",< 1000 nM
10,"NC(=O)c1c(Nc2ccc(I)cc2F)cc(F)cc1Oc1ccccc1 [Example 5.2, 4-Fluoro-2-(2-fluoro-4-iodo-phenylamino)-6-phenoxy-benzamide]",< 250 nM
11,"CS(=O)(=O)Nc1cccc(Oc2cc(F)cc(Nc3ccc(I)cc3F)c2C(N)=O)c1 [Example 6.1a, 4-Fluoro-2-(2-fluoro-4-iodo-phenylamino)-6-(3-methanesulfonylamino-phenoxy)-benzamide]",< 250 nM
12,"CCCNS(=O)(=O)Nc1cccc(Oc2cc(F)cc(Nc3ccc(I)cc3F)c2C(N)=O)c1 [Example 6.3, 2-[3-[[(propylamino)sulfonyl]amino]phenoxy]-4-fluoro-6-[(2-fluoro-4-iodophenyl)amino]-benzamide]",< 250 nM
13,"NC(=O)c1c(Nc2ccc(I)cc2F)cc(F)cc1Oc1cccc(N2CCCS2(=O)=O)c1 [Example 6.6, 2-[3-(1,1-Dioxo-1λ^6-isothiazolidin-2-yl)-phenoxy]-4-fluoro-6-(2-fluoro-4-iodo-phenylamino)-benzamide]",< 250 nM
14,"NC(=O)c1c(Nc2ccc(I)cc2F)cc(F)cc1Oc1cccc(NS(N)(=O)=O)c1 [Example 6.7, 2-[3-[[(amino)sulfonyl]amino]phenoxy]-4-fluoro-6-[(2-fluoro-4-iodophenyl)amino]-benzamide]",< 250 nM
15,"NC(=O)c1c(Nc2ccc(I)cc2F)cc(F)cc1OCCCNS(=O)(=O)c1ccccc1 [Example 6.11, 2-(3-Benzene-sulfonylamino-propoxy)-4-fluoro-6-(2-fluoro-4-iodo-phenylamino)-benzamide]",< 250 nM
16,"CS(=O)(=O)N1CCCC(COc2cc(F)cc(Nc3ccc(I)cc3F)c2C(N)=O)C1 (stereo not shown) [Example 6.15, 4-Fluoro-2-(2-fluoro-4-iodo-phenylamino)-6-(1-methanesulfonyl-piperidin-3-ylmethoxy)-benzamide]",< 1000 nM
17,"Cn1cnc(S(=O)(=O)NCCCOc2cc(F)cc(Nc3ccc(I)cc3F)c2C(N)=O)c1 [Example 6.17, 4-Fluoro-2-(2-fluoro-4-iodo-phenylamino)-6-[3-(1-methyl-1H-imidazole-4-sulfonylamino)-propoxy]-benzamide]",< 250 nM
18,"CS(=O)(=O)N1CCCCC1CCOc1cc(F)cc(Nc2ccc(I)cc2F)c1C(N)=O (stereo not shown) [Example 6.22, 4-Fluoro-2-(2-fluoro-4-iodo-phenylamino)-6-[2-(1-methanesulfonyl-piperidin-2-yl)-ethoxy]-benzamide]",< 1000 nM
19,"CC(C)(O)C(O)CCOc1cc(F)cc(Nc2ccc(I)cc2F)c1C(N)=O (stereo not shown) [Example 7.1, 2-(3,4-Dihydroxy-4-methyl-pentyloxy)-4-fluoro-6-(2-fluoro-4-iodo-phe-nylamino)-benzamide]",< 250 nM
20,NC(=O)c1c(Nc2ccc(I)cc2F)cc(F)cc1O[C@@H]1C[C@@H](O)[C@@H](O)C1 [Example 7.7],< 250 nM
21,"NC(=O)c1c(Nc2ccc(Br)cc2F)cc(F)cc1OCC[C@@H](O)CO [Example 8.4, 2-(4-Bromo-2-fluoro-phenylamino)-6-((R)-3,4-dihydroxy-butoxy)-4-fluoro-benzamide]",< 1000 nM
22,"NC(=O)c1c(Nc2ccc(I)cc2)cc(F)cc1OCC[C@@H](O)CO [Example 8.5, 2-((R)-3,4-Dihydroxy-butoxy)-4-fluoro-6-(4-iodo-phenylamino)-benzamide]",< 1000 nM
23,"C#Cc1ccc(Nc2cc(F)cc(OCC[C@@H](O)CO)c2C(N)=O)c(F)c1 [Example 9.1, 2-((R)-3,4-Dihydroxy-butoxy)-6-(4-ethynyl-2-fluoro-phenylamino)-4-fluoro-benzamide]",< 1000 nM
24,"NC[C@H](O)CCOc1cc(F)cc(Nc2ccc(I)cc2F)c1C(N)=O [Example 10.3, 2-((R)-4-Amino-3-hydroxy-butoxy)-4-fluoro-6-(2-fluoro-4-iodo-phenylamino)-benzamide]",< 250 nM
25,"NC(=O)c1c(Nc2ccc(I)cc2F)cc(F)cc1OCC[C@@H](O)CN1CCOCC1 [Example 10.6, 4-Fluoro-2-(2-fluoro-4-iodo-phenylamino)-6-((R)-3-hydroxy-4-morpholin-4-yl-butoxy)-benzamide]",< 250 nM
26,"NC(=O)c1c(Nc2ccc(I)cc2F)cc(Cl)cc1OCC[C@@H](O)CO [Example 11.3, 4-Chloro-2-((R)-3,4-dihydroxy-butoxy)-6-(2-fluoro-4-iodo-phenylamino)-benzamide]",< 1000 nM
27,"CNC(=O)c1c(Nc2ccc(I)cc2F)cc(F)cc1OCC[C@@H](O)CO [Example 12.8, 2-((R)-3,4-Dihydroxy-butoxy)-4-fluoro-6-(2-fluoro-4-iodo-phenylamino)-N-methyl-benzamide]",< 250 nM

# The next lines start with the values.
row,IC50,SMILES
1,< 250 nM,"C#Cc1ccc(Nc2cc(F)cc(Oc3cccc(NS(=O)(=O)N(C)C)c3)c2C(N)=O)c(F)c1 [Example 9.4, 2-[3-[[(dimethylamino)sulfonyl]amino]phenyoxy]-4-fluoro-6-[(4-ethynyl-2-fluorophenyl)amino]-benzamide]"
2,< 250 nM,"C#Cc1ccc(Nc2cc(F)cc(Oc3cccc(NS(=O)(=O)NCCC)c3)c2C(N)=O)c(F)c1 [Example 9.5, 2-[3-[[(propylamino)sulfonyl]amino]phenyoxy]-4-fluoro-6-[(4-ethynyl-2-fluorophenyl)amino]-benzamide]"

# System: colon cancer
# Assay: not given
# Details: oral treatment, mouse models, literature [18]; cited from earlier work
row,SMILES,colon cancer growth in vivo
1,O=C(NOCC1CC1)c1ccc(F)c(F)c1Nc1ccc(I)cc1Cl [PD184352],inhibit colon cancer growth

# System: not given
# Assay: not given
# Details: phase I/II clinical trials in humans, literature [19]; cited from earlier work
row,SMILES,clinical efficacy
1,O=C(NOCC1CC1)c1ccc(F)c(F)c1Nc1ccc(I)cc1Cl [PD184352],insufficient efficacy

# — patent US20090082328A1, “Substituted phenylamino-benzene derivatives useful for treating hyper-proliferative disorders and diseases associated with mitogen extracellular kinase activity” (Bayer Schering Pharma Aktiengesellschaft, priority 2007, published 2009)
